Molecules are shown by their SMILES.

Type in all cases: in vivo
In assay [1] the test system is Echinochloa crus-galli (ECHCG). Description: Herbicidal glasshouse test, pre-emergence. As to conditions: pre-emergence (sprayed after cultivation for one day), 1000 g/h, evaluated after 13 days. The protocol: (§1) Seeds of a variety of test species are sown in standard soil in pots (Alopecurus myosuroides (ALOMY), Setaria faberi (SETFA), Echinochloa crus-galli (ECHCG), Solanum nigrum (SOLNI), Amaranthus retoflexus (AMARE), Ipomoea hederacea (IPOHE)). After cultivation for one day (pre-emergence) or after 8 days cultivation (post-emergence) under controlled conditions in a glasshouse (at 24/16° C., day/night; 14 hours light; 65% humidity), the plants are sprayed with an aqueous spray solution derived from the formulation of the technical active ingredient in acetone/water (50:50) solution containing 0.5% Tween 20 (polyoxyethelyene sorbitan monolaurate, CAS RN 9005-64-5). Compounds are applied at 1000 g/h. The test plants are then grown in a glasshouse under controlled conditions in a glasshouse (at 24/16° C., day/night; 14 hours light; 65% humidity) and watered twice daily. After 13 days for pre and post-emergence, the test is evaluated for the percentage damage caused to the plant. The biological activities are shown in the following table on a five point scale (5=80-100%; 4=60-79%; 3=40-59%; 2=20-39%; 1=0-19%).

For assay [2], the system named is Amaranthus retoflexus (AMARE). Description: Herbicidal glasshouse test, pre-emergence. As to conditions: pre-emergence (sprayed after cultivation for one day), 1000 g/h, evaluated after 13 days. The protocol: as §1
Assay [3] relates to Solanum nigrum (SOLNI). As to the kind of experiment: Herbicidal glasshouse test, pre-emergence. The following applies: pre-emergence (sprayed after cultivation for one day), 1000 g/h, evaluated after 13 days. The protocol:
as §1

In assay [4] the test system is Alopecurus myosuroides (ALOMY). Description: Herbicidal glasshouse test, pre-emergence. The following applies: pre-emergence (sprayed after cultivation for one day), 1000 g/h, evaluated after 13 days. How it is done: as §1
Assay [5] concerns Ipomoea hederacea (IPOHE). Description: Herbicidal glasshouse test, pre-emergence. As to conditions: pre-emergence (sprayed after cultivation for one day), 1000 g/h, evaluated after 13 days. How it is done: as §1
Assay [6] deals with Setaria faberi (SETFA). Description: Herbicidal glasshouse test, pre-emergence. The following applies: pre-emergence (sprayed after cultivation for one day), 1000 g/h, evaluated after 13 days. The protocol:
as §1

The subject of assay [7] is Echinochloa crus-galli (ECHCG). As to the kind of experiment: Herbicidal glasshouse test, post-emergence. As to conditions: post-emergence (sprayed after 8 days cultivation), 1000 g/h, evaluated after 13 days. How it is done: as §1
Assay [8] deals with Amaranthus retoflexus (AMARE). Description: Herbicidal glasshouse test, post-emergence. The following applies: post-emergence (sprayed after 8 days cultivation), 1000 g/h, evaluated after 13 days. How it is done: as §1
Assay [9] deals with Solanum nigrum (SOLNI). Description: Herbicidal glasshouse test, post-emergence. As to conditions: post-emergence (sprayed after 8 days cultivation), 1000 g/h, evaluated after 13 days. How it is done:
as §1

The test system of assay [10] is Alopecurus myosuroides (ALOMY). Description: Herbicidal glasshouse test, post-emergence. As to conditions: post-emergence (sprayed after 8 days cultivation), 1000 g/h, evaluated after 13 days. The protocol: as §1
For assay [11], the system named is Ipomoea hederacea (IPOHE). Description: Herbicidal glasshouse test, post-emergence. As to conditions: post-emergence (sprayed after 8 days cultivation), 1000 g/h, evaluated after 13 days. How it is done:
as §1

The test system of assay [12] is Setaria faberi (SETFA). Description: Herbicidal glasshouse test, post-emergence. The following applies: post-emergence (sprayed after 8 days cultivation), 1000 g/h, evaluated after 13 days. How it is done:
as §1

For the molecule `Cc1cc(C(=O)Nc2nnnn2C)c(=O)n(-c2ccc(Cl)cc2)n1` [Compound 1.012], the “percentage damage caused to the plant, five point scale, PRE Application ECHCG” value in assay [1] was 5 (5=80-100%). Besides, the “percentage damage caused to the plant, five point scale, PRE Application AMARE” value in assay [2] is given as 5 (5=80-100%). The “percentage damage caused to the plant, five point scale, PRE Application SOLNI” value in the assay on Solanum nigrum (SOLNI) [3] was 5 (5=80-100%). Moreover, the “percentage damage caused to the plant, five point scale, PRE Application ALOMY” value in [4] is 5 (5=80-100%). Also, in assay [5], the “percentage damage caused to the plant, five point scale, PRE Application IPOHE” value was 3 (3=40-59%). The “percentage damage caused to the plant, five point scale, PRE Application SETFA” value with Setaria faberi (SETFA) [6] is 5 (5=80-100%). Moreover, the “percentage damage caused to the plant, five point scale, POST Application ECHCG” value in assay [7] was 5 (5=80-100%). For the same molecule, the “percentage damage caused to the plant, five point scale, POST Application AMARE” value in assay [8] is 5 (5=80-100%). Besides, the “percentage damage caused to the plant, five point scale, POST Application SOLNI” value in the assay with Solanum nigrum (SOLNI) [9] was 5 (5=80-100%). Besides, the “percentage damage caused to the plant, five point scale, POST Application ALOMY” value in [10] is 5 (5=80-100%). Besides, the “percentage damage caused to the plant, five point scale, POST Application IPOHE” value in assay [11] was 5 (5=80-100%). Further, in the assay on Setaria faberi (SETFA) [12], the “percentage damage caused to the plant, five point scale, POST Application SETFA” value is recorded as 5 (5=80-100%).
In the case of `Cc1cc(C(=O)Nc2nnnn2C)c(=O)n(-c2cc(Cl)cc(Cl)c2)n1` [Compound 1.005], the “percentage damage caused to the plant, five point scale, PRE Application ECHCG” value in [1] is recorded as 5 (5=80-100%). Besides, the “percentage damage caused to the plant, five point scale, PRE Application AMARE” value in assay [2] is given as 5 (5=80-100%). Moreover, the “percentage damage caused to the plant, five point scale, PRE Application SOLNI” value in the assay on Solanum nigrum (SOLNI) [3] is given as 5 (5=80-100%). In addition, the “percentage damage caused to the plant, five point scale, PRE Application ALOMY” value in assay [4] is 5 (5=80-100%). Further, in assay [5], the “percentage damage caused to the plant, five point scale, PRE Application IPOHE” value is reported as 5 (5=80-100%). The “percentage damage caused to the plant, five point scale, PRE Application SETFA” value with Setaria faberi (SETFA) [6] is listed as 5 (5=80-100%). Besides, in assay [7], the “percentage damage caused to the plant, five point scale, POST Application ECHCG” value is on record as 5 (5=80-100%). Moreover, the “percentage damage caused to the plant, five point scale, POST Application AMARE” value in assay [8] was 5 (5=80-100%). The “percentage damage caused to the plant, five point scale, POST Application SOLNI” value with Solanum nigrum (SOLNI) [9] is 5 (5=80-100%). Further, in [10], the “percentage damage caused to the plant, five point scale, POST Application ALOMY” value is listed as 5 (5=80-100%). Further, the “percentage damage caused to the plant, five point scale, POST Application IPOHE” value in assay [11] is 5 (5=80-100%). Also, the “percentage damage caused to the plant, five point scale, POST Application SETFA” value in the assay with Setaria faberi (SETFA) [12] was 5 (5=80-100%).

These data come from patent US9402398B2, “Herbicidal compounds” (SYNGENTA PARTICIPATIONS AG, priority 2012, dated 2016).
